For 40 compounds, EC50 results are on record in patent US9156872B2, “2′-azido substituted nucleoside derivatives and methods of use thereof for the treatment of viral diseases” (priority 2011, dated 2015).

Each structure is given as a SMILES string. Like-named read-outs stand apart in the source and are kept apart here. Some results are limits rather than exact numbers.

In this assay the test system is HCV replicon cells. The assay is described as follows: Cell-based HCV replicon assay (replicon RNA by Taqman real time PCR). The settings on record: read-out: 1b EC50.

As for `C[C@H](NP(=O)(OC[C@H]1O[C@@H](n2ccc(N)nc2=O)[C@](C)(N=[N+]=[N-])[C@@H]1O)Oc1ccccc1)C(=O)OCc1ccccc1` (single isomer, unassigned) [Compound 191], for the setting “Hepatitis C virus, 72 h”, the EC50 was found to be 25 µM.

On to `C[C@H](NP(=O)(OC[C@H]1O[C@@H](n2ccc(N)nc2=O)[C@](C)(N=[N+]=[N-])[C@@H]1O)Oc1ccccc1)C(=O)OCc1ccccc1` (single isomer, unassigned) [Compound 192], for which the EC50 was 19 µM. Take `COC(=O)[C@H](C)NP(=O)(OC[C@H]1O[C@@H](n2ccc(N)nc2=O)[C@](C)(N=[N+]=[N-])[C@@H]1O)Oc1ccc(Cl)c(Cl)c1` (single isomer, unassigned) [Compound 193]: the EC50 was 61 µM. On the same count and under the same terms, the value for `COC(=O)[C@H](C)NP(=O)(OC[C@H]1O[C@@H](n2ccc(N)nc2=O)[C@](C)(N=[N+]=[N-])[C@@H]1O)Oc1ccc(Cl)c(Cl)c1` (single isomer, unassigned) [Compound 194] was 35 µM; that for `COC(=O)[C@H](C)NP(=O)(OC[C@H]1O[C@@H](n2ccc(N)nc2=O)[C@](C)(N=[N+]=[N-])[C@@H]1O)Oc1ccccc1Cl` (single isomer, unassigned) [Compound 201] was 12 µM; that for `COC(=O)[C@H](C)NP(=O)(OC[C@H]1O[C@@H](n2ccc(N)nc2=O)[C@](C)(N=[N+]=[N-])[C@@H]1O)Oc1ccccc1Cl` (single isomer, unassigned) [Compound 202] was 10 µM. On the same count and under the same terms, to `CC(C)OC(=O)[C@H](C)NP(=O)(OC[C@H]1O[C@@H](n2ccc(N)nc2=O)[C@](C)(N=[N+]=[N-])[C@@H]1O)Oc1ccccc1Cl` (single isomer, unassigned) [Compound 203] belongs 20 µM.

Consider `CC(C)OC(=O)[C@H](C)NP(=O)(OC[C@H]1O[C@@H](n2ccc(N)nc2=O)[C@](C)(N=[N+]=[N-])[C@@H]1O)Oc1ccccc1Cl` (single isomer, unassigned) [Compound 204], for which the EC50 worked out at 1.3 µM.

For `CC(C)COC(=O)[C@H](C)NP(=O)(OC[C@H]1O[C@@H](n2ccc(=O)[nH]c2=O)[C@](C)(N=[N+]=[N-])[C@@H]1O)Oc1ccccc1` (single isomer, unassigned) [Compound 210], the EC50 came to 3.3 µM. Turning to `CC(C)COC(=O)[C@H](C)NP(=O)(OC[C@H]1O[C@@H](n2ccc(=O)[nH]c2=O)[C@](C)(N=[N+]=[N-])[C@@H]1O)Oc1ccccc1` (single isomer, unassigned) [Compound 211], the EC50 came to 0.8 µM. As to `CCOC(=O)c1cccc(OP(=O)(N[C@@H](C)C(=O)OC)OC[C@H]2O[C@@H](n3ccc(=O)[nH]c3=O)[C@](C)(N=[N+]=[N-])[C@@H]2O)c1` (single isomer, unassigned) [Compound 213], the EC50 (Hepatitis C virus, 72 h) came to 7.9 µM. Turning to `CCOC(=O)c1cccc(OP(=O)(N[C@@H](C)C(=O)OC)OC[C@H]2O[C@@H](n3ccc(=O)[nH]c3=O)[C@](C)(N=[N+]=[N-])[C@@H]2O)c1` (single isomer, unassigned) [Compound 214], the EC50 worked out at 12 µM. Still for that read-out and setting: to `COC(=O)c1ccccc1OP(=O)(N[C@@H](C)C(=O)OC)OC[C@H]1O[C@@H](n2ccc(=O)[nH]c2=O)[C@](C)(N=[N+]=[N-])[C@@H]1O` (single isomer, unassigned) [Compound 215] belongs 3.1 µM; to `COC(=O)c1ccccc1OP(=O)(N[C@@H](C)C(=O)OC)OC[C@H]1O[C@@H](n2ccc(=O)[nH]c2=O)[C@](C)(N=[N+]=[N-])[C@@H]1O` (single isomer, unassigned) [Compound 216], 1.3 µM; to `COC(=O)[C@H](C)NP(=O)(OC[C@H]1O[C@@H](n2ccc(=O)[nH]c2=O)[C@](C)(N=[N+]=[N-])[C@@H]1O)Oc1cccc2ccccc12` (single isomer, unassigned) [Compound 217], 2.1 µM. Same read-out and setting: the value for `COC(=O)[C@H](C)NP(=O)(OC[C@H]1O[C@@H](n2ccc(=O)[nH]c2=O)[C@](C)(N=[N+]=[N-])[C@@H]1O)Oc1cccc2ccccc12` (single isomer, unassigned) [Compound 218] was 4.6 µM.

Regarding `CCOC(=O)c1ccccc1OP(=O)(N[C@@H](C)C(=O)OC)OC[C@H]1O[C@@H](n2ccc(=O)[nH]c2=O)[C@](C)(N=[N+]=[N-])[C@@H]1O` (single isomer, unassigned) [Compound 225], the EC50 was found to be 2.8 µM. Same read-out and setting: the value for `CCOC(=O)c1ccccc1OP(=O)(N[C@@H](C)C(=O)OC)OC[C@H]1O[C@@H](n2ccc(=O)[nH]c2=O)[C@](C)(N=[N+]=[N-])[C@@H]1O` (single isomer, unassigned) [Compound 226] was 26 µM; that for `COC(=O)c1ccccc1OP(=O)(N[C@@H](C)C(=O)OC)OC[C@H]1O[C@@H](n2ccc(=O)[nH]c2=O)[C@](C)(N=[N+]=[N-])[C@@H]1O` (single isomer, unassigned) [Compound 227] was 3.1 µM; that for `COC(=O)c1ccccc1OP(=O)(N[C@@H](C)C(=O)OC)OC[C@H]1O[C@@H](n2ccc(=O)[nH]c2=O)[C@](C)(N=[N+]=[N-])[C@@H]1O` (single isomer, unassigned) [Compound 228] was 1.3 µM. The same measure, in the same setting: the value for `C[C@H](NP(=O)(OC[C@H]1O[C@@H](n2ccc(=O)[nH]c2=O)[C@](C)(N=[N+]=[N-])[C@@H]1O)Oc1ccc(F)cc1)C(=O)OC1CCCCC1` (single isomer, unassigned) [Compound 232] was > 100 µM. Still for that read-out and setting: to `C[C@H](NP(=O)(OC[C@H]1O[C@@H](n2ccc(=O)[nH]c2=O)[C@](C)(N=[N+]=[N-])[C@@H]1O)Oc1ccc(F)cc1)C(=O)OC1CCCCC1` (single isomer, unassigned) [Compound 233] belongs 2.1 µM. `CCOC(=O)[C@H](C)NP(=O)(OC[C@H]1O[C@@H](n2cnc3c(OC)nc(N)nc32)[C@](C)(N=[N+]=[N-])[C@@H]1O)Oc1ccc(Cl)cc1` (single isomer, unassigned) [Compound 238]: the EC50 (Hepatitis C virus, 72 h) turned out to be 1.2 µM.

Consider `CCOC(=O)[C@H](C)NP(=O)(OC[C@H]1O[C@@H](n2cnc3c(OC)nc(N)nc32)[C@](C)(N=[N+]=[N-])C1O)Oc1ccccc1` (single isomer, unassigned) [Compound 251], for which the EC50 (Hepatitis C virus, 72 h) amounted to 0.4 µM.

Take `COc1nc(N)nc2c1ncn2[C@@H]1O[C@H](COP(=O)(N[C@@H](C)C(=O)OC(C)C)Oc2ccccc2)C(O)[C@@]1(C)N=[N+]=[N-]` (single isomer, unassigned) [Compound 252]: where the note is “Hepatitis C virus, 72 h”, the EC50 is 1.1 µM. Turning to `COc1nc(N)nc2c1ncn2[C@@H]1O[C@H](COP(=O)(N[C@@H](C)C(=O)OC(C)C)Oc2ccccc2)C(O)[C@@]1(C)N=[N+]=[N-]` (single isomer, unassigned) [Compound 253], the EC50 is 0.6 µM. In the case of `COC(=O)[C@H](C)NP(=O)(OC[C@H]1O[C@@H](n2cnc3c(OC)nc(N)nc32)[C@](C)(N=[N+]=[N-])C1O)Oc1cccc2ccccc12` (single isomer, unassigned) [Compound 254], the EC50 (Hepatitis C virus, 72 h) was found to be 1 µM.

For `COC(=O)[C@H](C)NP(=O)(OC[C@H]1O[C@@H](n2cnc3c(OC)nc(N)nc32)[C@](C)(N=[N+]=[N-])C1O)Oc1cccc2ccccc12` (single isomer, unassigned) [Compound 255], the EC50 was determined as 1.2 µM.

`COC(=O)[C@H](C)NP(=O)(OC[C@H]1O[C@@H](n2cnc3c(OC)nc(N)nc32)[C@](C)(N=[N+]=[N-])[C@@H]1O)Oc1ccccc1Cl` (single isomer, unassigned) [Compound 256]: under “Hepatitis C virus, 72 h”, the EC50 was found to be 1.4 µM.

For the compound `COC(=O)[C@H](C)NP(=O)(OC[C@H]1O[C@@H](n2cnc3c(OC)nc(N)nc32)[C@](C)(N=[N+]=[N-])[C@@H]1O)Oc1ccccc1Cl` (single isomer, unassigned) [Compound 257], the EC50 worked out at 0.7 µM.

Turning to `COC(=O)[C@H](C)NP(=O)(OC[C@H]1O[C@@H](n2cnc3c(OC)nc(N)nc32)[C@](C)(N=[N+]=[N-])[C@@H]1O)Oc1ccc(Cl)cc1` (single isomer, unassigned) [Compound 258], the EC50 (Hepatitis C virus, 72 h) turned out to be 0.8 µM. Regarding `COC(=O)[C@H](C)NP(=O)(OC[C@H]1O[C@@H](n2cnc3c(OC)nc(N)nc32)[C@](C)(N=[N+]=[N-])[C@@H]1O)Oc1ccc(Cl)cc1` (single isomer, unassigned) [Compound 259], the EC50 is 0.6 µM. The same measure, in the same setting: the value for `COC(=O)[C@H](C)NP(=O)(OC[C@H]1O[C@@H](n2cnc3c(OC)nc(N)nc32)[C@](C)(N=[N+]=[N-])C1O)Oc1ccccc1` (single isomer, unassigned) [Compound 260] was 3.6 µM.

Regarding `COC(=O)[C@H](C)NP(=O)(OC[C@H]1O[C@@H](n2cnc3c(OC)nc(N)nc32)[C@](C)(N=[N+]=[N-])C1O)Oc1ccccc1` (single isomer, unassigned) [Compound 261], the EC50 came out at 0.9 µM. As for `CCCCOC(=O)[C@H](C)NP(=O)(OC[C@H]1O[C@@H](n2cnc3c(OC)nc(N)nc32)[C@](C)(N=[N+]=[N-])C1O)Oc1ccccc1` (single isomer, unassigned) [Compound 262], the EC50 (Hepatitis C virus, 72 h) is 2.4 µM. In the case of `CCCCOC(=O)[C@H](C)NP(=O)(OC[C@H]1O[C@@H](n2cnc3c(OC)nc(N)nc32)[C@](C)(N=[N+]=[N-])C1O)Oc1ccccc1` (single isomer, unassigned) [Compound 263], the EC50 is 1.5 µM. Still for that read-out and setting: to `COc1nc(N)nc2c1ncn2[C@@H]1O[C@H](COP(=O)(N[C@@H](C)C(=O)OC2CCCCC2)Oc2ccc(F)cc2)[C@@H](O)[C@@]1(C)N=[N+]=[N-]` (single isomer, unassigned) [Compound 264] belongs 0.2 µM.

As for `COc1nc(N)nc2c1ncn2[C@@H]1O[C@H](COP(=O)(N[C@@H](C)C(=O)OC2CCCCC2)Oc2ccc(F)cc2)[C@@H](O)[C@@]1(C)N=[N+]=[N-]` (single isomer, unassigned) [Compound 265], the EC50 came out at 2.5 µM. The same measure, in the same setting: to `COC(=O)[C@H](C)NP(=O)(OC[C@H]1O[C@@H](n2cnc3c(OC)nc(N)nc32)[C@](C)(N=[N+]=[N-])[C@@H]1O)Oc1ccc(F)cc1` (single isomer, unassigned) [Compound 266] belongs 2.4 µM. The same measure, in the same setting: the value for `COC(=O)[C@H](C)NP(=O)(OC[C@H]1O[C@@H](n2cnc3c(OC)nc(N)nc32)[C@](C)(N=[N+]=[N-])[C@@H]1O)Oc1ccc(F)cc1` (single isomer, unassigned) [Compound 267] was 0.7 µM.
